Values of other authors in US7863316B2, “Extended release formulation of Levetiracetam” (UCB Pharma S.A., priority 2005, dated 2011).

Experiments:
[1] = three different pH media, immediate release tablet
[2] = not given; remark: listed apart in the source

In the case of `CC[C@@H](C(N)=O)N1CCCC1=O` [Levetiracetam, (−)-(S)-α-ethyl-2-oxo-1-pyrrolidine acetamide], the “tablet amount released in 15 minutes” value [1] is listed as over 85%, the “time to steady state kinetics” value (after multiple twice daily dosing) is listed as 2 days and the “bound to plasma proteins” value (in vivo) is listed as “less than 10%”. For the same compound, the renal clearance (in vivo) was 0.6 mL/min/kg, the total body clearance (in vivo) was 0.9 mL/min/kg and the volume of distribution (in vivo) was 0.6 L/kg. For the same compound, the “decrease of cmax by food” value (with food) was 20%, the “delay of Tmax by food” value (with food) was 1.5 h and the solubility in acetonitrile ([2]; acetonitrile) was 5.7 g/100 mL. The solubility in chloroform ([2]; chloroform) was 65.3 g/100 mL, the solubility in ethanol ([2]; ethanol) was 16.5 g/100 mL and the solubility in methanol ([2]; methanol) was 53.6 g/100 mL. The solubility in n-hexane ([2]; n-hexane) was “practically insoluble” and the aqueous solubility ([2]; water) was 104 g/100 mL.
